{
  "source": "patent US20130130306A1",
  "about": "“ZN (II) BASED COLORIMETRIC SENSOR AND PROCESS FOR THE PREPARATION THEREOF” (COUNCIL OF SCIENTIFIC & INDUSTRIAL RESEARCH, priority 2010, published 2013)",
  "key": {"[1]": {"test_system": "Pseudomonas fluorescence (Gram −ve)", "assay": "Staining of Gram −ve bacteria, light microscopy and growth kinetics", "assay_type": "cell-based", "set-up": "change in color of bacterial stains: dose or concentration left out as unconfirmed", "details": "for growth of colonies streaked on nutrient agar plates after incubation with sensor: Pseudomonas species in King's B media, 25° C., 10 mins", "experimental": "The isolates of Saccharomyces sp. were cultured in GYE (glucose yeast extract agar) media, Bacillus sp. in Nutrient broth, and Pseudomonas sp. in King's B medium for 24 hour at 37° C. […] of this was taken and was allowed to incubate at 30 to 40° C. along with 100 μl of L.Zn (Scheme 1, Formula 1A) (1.16×10^−4 M) solution. The samples were fixed overnight at room temperature 25-30° C. with 2% (v/v) glutaraldehyde in 0.1 M phosphate buffer at pH 7.5. The samples were then washed with 0.1 M phosphate buffer (pH 7.5) at room temperature 25-30° C. for 1 hour. Post-fixation was carried out in 2% (w/v) osmium tetroxide (OsO4) in the same buffer and was washed once with 0.1 M phosphate buffer for 20 minutes. Then, the water was removed by a graded water-ethanol series; 25% ethanol for 15 min, 50% ethanol for 15 min, 75% ethanol for 30 min, 90% ethanol for 60 min, absolute alcohol for 30 min. The specimens were rinsed in buffer and coated with gold in a sputter coater (Polaron SC7620) prior to microscopy. The material was examined in a Scanning Electron Microscope (SEM) LEO 1430 VP at an accelerating Voltage of 15 kV.\nThe isolates of Saccharomyces sp. were cultured in GYE (glucose yeast extract agar) media, Bacillus sp. in Nutrient broth, and Pseudomonas sp. in King's B medium for 24 hour at 37° C. 1001 of this was taken and was allowed to incubate at room temperature along with 1001 of [L.Zn]=1.16×10^−4M solution (pH 7.2, 10 mM HEPES buffer solution). The samples were fixed overnight at 25 to 35° C. with 2% (v/v) glutaraldehyde in 0.1 M phosphate buffer at pH 7.5. The samples were then; washed with 0.1 M phosphate buffer (pH 7.5) at 25 to 35° C. for 1 hour. Post-fixation was carried out in 2% (w/v) osmium tetroxide (OsO4) in the same buffer and was washed once with 0.1 M phosphate buffer for 20 minutes. Then, the water was removed by a graded water-ethanol series; 25% ethanol for 15 min, 50% ethanol for 15 min, 75% ethanol for 30 min, 90% ethanol for 60 min, absolute alcohol for 30 min. The specimens were rinsed in buffer and coated with gold in a sputter coater (Polaron SC7620) prior to microscopy. The material was examined in a scanning electron microscope (SEM) LEO 1430 VP at an accelerating Voltage of 15 kV.\nWe also explored the possibility of using L.Zn/L.Zn.α-CD as the staining agent for prokaryotes (Gram +ve and Gram −ve bacterial cells). […] As expected stained cells for Gram +ve bacteria appeared longer as compared to those of the stained Gram −ve bacteria. The difference in the staining intensity for two different bacteria with the L.Zn.α-CD (Scheme 2) could be much better understood after going into the depth of cell biology of each bacterial cells and the detailed biochemistry involved while staining; besides, difference in cell structure and cell wall composition of the respective bacteria. […] Changes on the cell surfaces on binding of the dye, L.Zn (Scheme 1, Formula 1A) were also evident from the SEM images recorded for Gram −ve and Gram +ve bacteria, in absence and presence of staining agent (FIGS. 11C to 11F). Difference in the contrasts in the SEM images of the sample surfaces also signifies the non-homogeneous chemical nature of the sample surface. […] The growth profile of Eukaryotic Yeast cells (Saccharomyces cerevisiae) and Prokaryotic bacterial cells ([…]) in an aqueous culture medium in absence and presence of L.Zn (Scheme 1, Formula 1A) are shown in FIG. 12. […]"}, "[2]": {"test_system": "Bacillus megaterium (Gram +ve)", "assay": "Staining of Gram +ve bacteria, light microscopy", "assay_type": "cell-based", "set-up": "change in color of bacterial stains: dose or concentration left out as unconfirmed", "experimental": "The isolates of Saccharomyces sp. were cultured in GYE (glucose yeast extract agar) media, Bacillus sp. in Nutrient broth, and Pseudomonas sp. in King's B medium for 24 hour at 37° C. […] of this was taken and was allowed to incubate at 30 to 40° C. along with 100 μl of L.Zn (Scheme 1, Formula 1A) (1.16×10^−4 M) solution. The samples were fixed overnight at room temperature 25-30° C. with 2% (v/v) glutaraldehyde in 0.1 M phosphate buffer at pH 7.5. The samples were then washed with 0.1 M phosphate buffer (pH 7.5) at room temperature 25-30° C. for 1 hour. Post-fixation was carried out in 2% (w/v) osmium tetroxide (OsO4) in the same buffer and was washed once with 0.1 M phosphate buffer for 20 minutes. […]\nWe also explored the possibility of using L.Zn/L.Zn.α-CD as the staining agent for prokaryotes (Gram +ve and Gram −ve bacterial cells). […] Changes on the cell surfaces on binding of the dye, L.Zn (Scheme 1, Formula 1A) were also evident from the SEM images recorded for Gram −ve and Gram +ve bacteria, in absence and presence of staining agent (FIGS. 11C to 11F). […] The growth profile of Eukaryotic Yeast cells (Saccharomyces cerevisiae) and Prokaryotic bacterial cells ([…]) in an aqueous culture medium in absence and presence of L.Zn (Scheme 1, Formula 1A) are shown in FIG. 12. […]"}},
  "data": [
    {"smiles": "CN(C)c1ccc(N=Nc2ccc(S(=O)(=O)N3CCCNCCNCCCNCC3)cc2)cc1.O=[N+]([O-])[O-].O=[N+]([O-])[O-].[Zn+2]", "note": "[L.Zn]", "values": [
      {"measurement": "growth of colonies streaked on nutrient agar plates after incubation with sensor", "setting": "[1]; sensor 1.0×10^−4 M", "result": "colonies of the test microbes grew"},
      {"measurement": "growth of colonies streaked on nutrient agar plates after incubation with sensor", "setting": "[1]; sensor 1.25×10^−4 M", "result": "colonies of the test microbes grew"},
      {"measurement": "growth of colonies streaked on nutrient agar plates after incubation with sensor", "setting": "[1]; sensor 1.45×10^−4 M", "result": "colonies of the test microbes grew"},
      {"measurement": "binding to ATP released during cell growth, Gram −ve compared to Gram +ve", "setting": "[1]; extent of absorbance changes and slope, growth kinetics at 600 nm", "result": "higher binding"},
      {"measurement": "change in color of bacterial stains", "setting": "[1]; light microscopy", "result": "distinct change in color"},
      {"measurement": "growth of colonies streaked on nutrient agar plates after incubation with sensor", "setting": "[2]; Bacillus species in Nutrient broth, sensor 1.0×10^−4 M, 25° C., 10 mins", "result": "colonies of the test microbes grew"},
      {"measurement": "change in color of bacterial stains", "setting": "[2]; light microscopy", "result": "distinct change in color"}
    ]}
  ]
}
